The values below come from PubChem BioAssay (NCI).

Values joined by “and” are separate entries in the source; they are usually repeats but may differ in a detail not shown here. Identical values can stand only once.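 Method: 48-hour compound exposure of cells in 96-well plates, five concentrations, linear interpolation of endpoints. GI50 = concentration required for 50% inhibition of growth. TGI marks complete inhibition of growth.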

Among the test systems are 786-0 renal; ACHN renal; CCRF-CEM leukemia; HCC-2998 colon; MALME-3M melanoma; NCI-H522 lung; OVCAR-3 ovarian; OVCAR-5 ovarian; RXF 393 renal; SF-268 CNS.
Assay in all cases: DTP human tumour cell line panel, 48 h

On to `CN(C)CCNc1ccc(CO)c2sc3ccc(O)cc3c(=O)c12`, for which the TGI stood at 9.37 µM with 786-0 renal; 6.75 µM in the experiment with ACHN renal; 21.3 µM with CCRF-CEM leukemia; 7.4 µM in the experiment with HCC-2998 colon; 9.81 µM with MALME-3M melanoma; 3.49 µM with NCI-H522 lung. For the same compound, the TGI in the experiment on OVCAR-3 ovarian was determined as 23.5 µM; with OVCAR-5 ovarian, 14.6 µM; in the experiment on RXF 393 renal it was 4.44 µM; with SF-268 CNS it was 8.82 µM.

Regarding `N/N=C1\C(=O)N(C2CCCCCC2)C(=O)C1C(=O)NC1CCCCCC1` (configuration not stated), the TGI was more than 100 µM with 786-0 renal; more than 100 µM in the experiment with ACHN renal; 80.8 µM in the experiment on CCRF-CEM leukemia; 43.9 µM with HCC-2998 colon; 45.3 µM with MALME-3M melanoma; 60 µM in the experiment on NCI-H522 lung. In addition, the TGI in the experiment on OVCAR-3 ovarian is more than 100 µM; in the experiment on OVCAR-5 ovarian, more than 100 µM; with RXF 393 renal, 69.8 µM; with SF-268 CNS, more than 100 µM.

Turning to `O=C(CCC(=O)Nc1ccc(Cl)c(Cl)c1)CC(=O)c1ccc(Br)cc1`, the concentration for total growth inhibition (TGI) in the experiment on 786-0 renal, in the experiment on ACHN renal, in the experiment with CCRF-CEM leukemia, in the experiment on MALME-3M melanoma, in the experiment with NCI-H522 lung and with OVCAR-3 ovarian was more than 100 µM each time. Further, the total growth inhibition concentration (TGI) in the experiment with OVCAR-5 ovarian, in the experiment with RXF 393 renal and with SF-268 CNS was more than 100 µM in each case.

Regarding `C=C1C(=O)OC2C/C(C)=C/CC/C(C)=C/CCC3(COC(C)=O)OC3CC12` (configuration not stated), the concentration for total growth inhibition (TGI) in the experiment on 786-0 renal worked out at 17.4 µM; with ACHN renal, 27.5 µM; in the experiment with CCRF-CEM leukemia, 8.49 µM; in the experiment on HCC-2998 colon, 21.5 µM; with MALME-3M melanoma, 25.7 µM; in the experiment on NCI-H522 lung, 2.9 µM. In addition, the total growth inhibition concentration (TGI) in the experiment with OVCAR-3 ovarian came out at 19.2 µM; in the experiment on OVCAR-5 ovarian, 30.5 µM; in the experiment with RXF 393 renal, 18 µM; in the experiment with SF-268 CNS, 21.7 µM.

Consider `O=C(Nc1cc(C(F)(F)F)ccc1Cl)c1ccc(NC2=C(Cl)C(=O)N(Cc3ccccc3)C2=O)cc1`, for which the GI50 in the experiment with 786-0 renal was 23.4 µM; with ACHN renal, 23.8 µM; in the experiment on CCRF-CEM leukemia, 1.42 µM; in the experiment on HCC-2998 colon, 5.28 µM; in the experiment with NCI-H522 lung it was 11.1 µM; in the experiment on OVCAR-3 ovarian, 19.1 µM. In addition, the GI50 was more than 100 µM with OVCAR-5 ovarian, 23.7 µM in the experiment on RXF 393 renal and 32.7 µM with SF-268 CNS. Besides, the total growth inhibition concentration (TGI) with 786-0 renal was more than 100 µM; with ACHN renal, 64.9 µM; in the experiment with CCRF-CEM leukemia, 11.7 µM; in the experiment on HCC-2998 colon, 9.11 µM; with NCI-H522 lung it was 28 µM; in the experiment on OVCAR-3 ovarian, 46.1 µM. Further, the TGI is more than 100 µM in the experiment with OVCAR-5 ovarian, 73 µM in the experiment on RXF 393 renal and more than 100 µM in the experiment with SF-268 CNS.

On to `CCN(CC)CCCNc1ccc2nc(C)n3c4ccc(O)cc4c(=O)c1c23`, for which the TGI was 16.8 µM with 786-0 renal; 15.2 µM with ACHN renal; 46.7 µM in the experiment with CCRF-CEM leukemia; 22.6 µM with HCC-2998 colon; 22.8 µM with MALME-3M melanoma; 14.3 µM in the experiment on NCI-H522 lung. Also, the total growth inhibition concentration (TGI) in the experiment on OVCAR-3 ovarian is 21.6 µM; in the experiment with OVCAR-5 ovarian it was 20.2 µM; in the experiment on RXF 393 renal it was 15 µM; in the experiment with SF-268 CNS, 17.2 µM.

As to `[C](#Cc1ccccc1)[Hg][C]#Cc1ccccc1`, the GI50 in the experiment on 786-0 renal is 30.6 µM; in the experiment with ACHN renal it was 21.1 µM; in the experiment on CCRF-CEM leukemia, 8.93 µM; with HCC-2998 colon it was 47.7 µM; in the experiment on MALME-3M melanoma, 27.9 µM; in the experiment with NCI-H522 lung, 19.4 µM. Moreover, the GI50 was 39.8 µM with OVCAR-3 ovarian, 63.1 µM in the experiment with OVCAR-5 ovarian, 16.5 µM with RXF 393 renal and 18.7 µM in the experiment on SF-268 CNS. Further, the TGI in the experiment on 786-0 renal is more than 100 µM; in the experiment on ACHN renal, 41.6 µM; in the experiment with CCRF-CEM leukemia, more than 100 µM; in the experiment on HCC-2998 colon, 82.6 µM; in the experiment on MALME-3M melanoma it was 54.7 µM; with NCI-H522 lung, 46.1 µM. Also, the TGI in the experiment with OVCAR-3 ovarian is more than 100 µM; in the experiment with OVCAR-5 ovarian it was more than 100 µM; in the experiment on RXF 393 renal it was 34.9 µM; in the experiment on SF-268 CNS, 38 µM.

On to `Cc1[nH]nc(C(F)(F)F)c1N=NN(C)C`, for which the total growth inhibition concentration (TGI) in the experiment with 786-0 renal was found to be 3.09 µM; in the experiment on ACHN renal, 18.9 µM; in the experiment on CCRF-CEM leukemia, 16 µM; in the experiment with HCC-2998 colon it was 31.5 µM; with MALME-3M melanoma it was 38.3 µM; with NCI-H522 lung it was 2.98 µM. Further, the figures for the TGI in the experiment on OVCAR-3 ovarian, in the experiment with RXF 393 renal and in the experiment on SF-268 CNS were 22.1 µM, 26.5 µM and 24.1 µM, respectively.

Regarding `N#CN/C(N)=N/C/N=C(\N)NC#N`, the TGI with 786-0 renal is 60.8 µM; in the experiment on ACHN renal, more than 100 µM; in the experiment with CCRF-CEM leukemia, more than 100 µM; in the experiment on HCC-2998 colon it was more than 100 µM; with MALME-3M melanoma, more than 100 µM; with NCI-H522 lung, more than 100 µM. Also, the concentration for total growth inhibition (TGI) with OVCAR-3 ovarian, in the experiment on OVCAR-5 ovarian, in the experiment with RXF 393 renal and in the experiment with SF-268 CNS was more than 100 µM in each case.

In the case of `NC(=O)N/N=C(/CC1C(=O)Oc2ccccc21)c1ccccc1O` (configuration not stated), the TGI was more than 100 µM in the experiment with 786-0 renal; more than 100 µM in the experiment on ACHN renal; 56.9 µM with CCRF-CEM leukemia; 91.1 µM with HCC-2998 colon; more than 100 µM in the experiment with MALME-3M melanoma; more than 100 µM in the experiment on NCI-H522 lung. Moreover, the concentration for total growth inhibition (TGI) with OVCAR-3 ovarian, in the experiment with OVCAR-5 ovarian, in the experiment with RXF 393 renal and in the experiment on SF-268 CNS was more than 100 µM each time.

With `CC1CCC2(NC1)OC1CC3C4CC=C5CC(O)CCC5(C)C4CCC3(C)C1C2C` (configuration not stated), the GI50 in the experiment on 786-0 renal was 14.5 µM and 3.24 µM; with ACHN renal, 29.8 µM and 11.1 µM; in the experiment on HCC-2998 colon, 31.7 µM and 15.2 µM; with MALME-3M melanoma, 34.1 µM and 13.5 µM; in the experiment on OVCAR-3 ovarian it was 28 µM and 8.98 µM; in the experiment with SF-268 CNS it was 39.8 µM and 16.1 µM. Also, the TGI with 786-0 renal is 30.1 µM and 11.9 µM; in the experiment with ACHN renal it was 91.7 µM and 30 µM; in the experiment on CCRF-CEM leukemia, 40 µM and 41.5 µM; in the experiment on HCC-2998 colon, > 100 µM and 56 µM; in the experiment on MALME-3M melanoma it was > 100 µM and 34.3 µM; in the experiment with NCI-H522 lung, > 100 µM and 62.9 µM. Besides, the TGI in the experiment on OVCAR-3 ovarian is > 100 µM and 32.5 µM; in the experiment on OVCAR-5 ovarian, more than 100 µM; with RXF 393 renal it was 60.2 µM and 39.9 µM; in the experiment with SF-268 CNS it was more than 100 µM.

For orientation: TGI means the concentration giving total growth inhibition. A higher TGI goes with lower sensitivity of the cells. For orientation: GI50 means the concentration at which growth is held to half of that of the control.
